The values that follow come from patent US20260137828A1, “COMPOSITIONS AND METHODS INVOLVING PROBIOTIC MOLECULES” (MICROSINTESIS INC., priority 2017, published 2026).

Experiment [1] has as its system MRSA. To be noted: after a 24 hour incubation; cited from earlier work.
For experiment [2], the system named is HilA. The experiment in a line: qPCR of HilA down-regulation in Salmonella. It is filed as cell-based, Salmonella enterica typhimurium DT104. Particulars: reference 16S, individual synthetic biopeptides, 50 μg per assay. The source says:
The cell-free supernatant was separated using Sephadex G75 resin. The samples were separated and collected into fractions: Fraction 1 (>163000 Da), Fraction 2 (163000-14500 Da), Fraction 3 (14500-1300 Da), Fraction 4 (1300-110 Da), Fraction 5 (110-10 Da). The samples were collected and assayed by qPCR using Salmonella enterica typhimurium DT104 strain. The down-regulation of HilA was compared to the reference gene 16S.
The active fraction from G75 size exclusion chromatography was further separated using reverse phase chromatography. The fractions from the reverse phase: Fraction 1 (0-2 min), Fraction 2 (2-4 min), Fraction 3 (4-16 min), Fraction 4 (16-32 min), Fraction 5 (32-40 min), Fraction 6 (40-58 min). The fractions were dried and neutralized to remove acetonitrile and trifluoroacetic acid from the solvent. The dried fractions were assayed using the same qPCR assay conditions as above. The fractions were analyzed by de novo sequencing at the University of Guelph Advance Analytical center. The peptides from the active fractions of 6 batches were compared and common peptides from batches were deduced.
Additionally, the 1×sample from each probiotic culture was tested using the Salmonella qPCR assay described in example 1 or a Lactate Dehydrogenase (LDH) assay using either UPEC 099 or Staphylococcus aureus 81M. For the LDH assay the dried cell-free supernatant was resuspended into 5 mL of lysogeny broth and inoculated with either UPEC 099 or Staphylococcus aureus 81M and incubated for 4 hours. After incubation, the samples were centrifuged and the supernatant was assayed. A 100 μL aliquot of supernatant was added to 1 mL mammalian HT29 cells at 1×10^6 cells per mL in a 12-well plate. The samples were incubated for 45 minutes at 37° C. and 5% CO2. The supernatant was then assayed using the manufacture's protocol (Pierce LDH Cytotoxicity assay kit, Thermo Scientific, Rockford, Il, USA). The percent inhibition was calculated using the no treatment control and a detergent lysed control using the formula provided in the protocol (Table 3).
A general note: In qPCR the cycle at which signal appears reflects the starting amount.

Experiment [3] concerns HylA. Particulars: reference GapA, individual synthetic biopeptides, 50 μg per assay.
Protocol: The La-5 cell-free supernatant used for these experiments was batch D4. […] Strain 1 alias UPEC99 and strain 2 alias UPEC804. The strains were cultured on LB agar. Two different media were tested LB and artificial urine medium.
The UPEC were grown for 4 hours in the presence of cell-free supernatant. The cells were harvested and the RNA was extracted. The RNA was treated with DNAse I to remove genomic DNA. The RNA was used as a template to make cDNA. The cDNA was assayed by qPCR and the gene expression was normalized to a reference gene and compared to a without cell-free media control.
The synthetic bio-peptides were analyzed at 50 μg per assay.
Experiment [4] relates to Staphylococcus aureus (strain alias 81M SPA t008). The experiment in a line: Cefoxitin MIC testing with and without cell-free supernatant or size exclusion fractions. It is filed as cell-based. The source says:
(§1) Three methicillin resistant Staphylococci (MRS) strains were used in these experiments: 1) Staphylococcus pseudintermedius (strain alias C260 22-2011 dtqa), a clinical isolate from a dog skin infection; 2) Staphylococcus aureus (strain alias LA-414M SPA t034), a livestock-associated strain isolated from beef purchased from a grocery store in Charlottetown, PEI, Canada; and 3) Staphylococcus aureus (strain alias 81M SPA t008), isolated from poultry meat purchased from a grocery store in Charlottetown, PEI, Canada. All three MRS strains were provided by the Atlantic Veterinary College (AVC) at the University of Prince Edward Island. The methicillin-resistance of these strains was confirmed by AVC staff using an oxacillin disk diffusion method. The strains were originally cultured on sheep blood agar slants, and then transferred to lysogeny broth agar plates. Cefoxitin resuspended in methanol was used for antibiotic resistance testing, and growth was tested in two different media types, standard Lysogeny Broth and standard BBL™ Cation-Adjusted Mueller-Hinton Medium (Becton, Dickinson and Company). The minimum inhibitory concentrations (MICs) of the cefoxitin was determined for each strain in each respective medium in the presence and absence of the cell-free supernatant. Assays were performed according to the Clinical and Laboratory Standards Institute (CLSI) guidelines for MIC testing of Staphylococcal species [CLSI, 2015] as well as the European Committee for Antimicrobial Susceptibility Testing (EUCAST) of the European Society of Clinical Microbiology and Infectious Diseases [EUCAST, 2003].
(§2) The protocol for MIC testing was as follows. The cell-free supernatants were resuspended in the respective media and filter sterilized through a […] pore size filter. The required concentration of dried cell free supernatant was weighed and added at concentrations ranging from 0-60 mg/mL. Cefoxitin was added to obtain final concentrations ranging from 0-250 μg/mL. Cultures of each respective strain were grown overnight in either lysogeny broth or Mueller Hinton for 16-20 hours at 37° C. and 200 rpm shaking in aerobic conditions to achieve optical densities at 600 nm (OD600) of 1.2-1.6. […] The cultures (150 μL) were grown in a 96-well clear flat-bottom microtiter plate. The microtiter plate was then covered in parafilm and incubated at 35° C.±2° C. for 24 hours. Following incubation, microplates were read at 600 nm using a microplate reader. […] The data is the average from two technical replicates from two biological replicates.
For the size exclusion chromatography the sample was separated using a Sephadex G75 resin. The samples were separated and collected into fractions: Fraction 1 (>163000 Da), Fraction 2 (163000-14500 Da), Fraction 3 (14500-1300 Da), Fraction 4 (1300-110 Da), Fraction 5 (110-10 Da).

Experiment [5] relates to Staphylococcus pseudintermedius (strain alias C260 22-2011 dtqa). Briefly: Cefoxitin MIC testing with and without cell-free supernatant. It is filed as cell-based. Particulars: MSRP C260, Lysogeny Broth.
Text: as §1, §2

The test system of experiment [6] is Staphylococcus aureus (strain alias LA-414M SPA t034). The description is as above. Particulars: MRSA LA 414M. It is filed as cell-based.
Text: as §1, §2

Take Lactobacillus acidophilus: in experiment [1], the MRSA cells eliminated is listed as 99%.
Regarding LKPTPEGD, the Fold down-regulation worked out at 11.08 Fold in experiment [2] and 4.69 Fold in experiment [3].
For the molecule `CO[C@@]1(NC(=O)Cc2cccs2)C(=O)N2C(C(=O)O)=C(COC(N)=O)CS[C@@H]21` [cefoxitin], the “Range of Cefoxitin concentration to inhibition growth to O.D. <0.1” value (shortened to “Range … to inhibition growth to O.D. <0.1”) fell in the range of 75 to 125 µg/mL in experiment [4] (MRSA 81M, Lysogeny Broth, 0 mg/mL dried cell-free supernatant); 40 to 50 µg/mL in experiment [4] (MRSA 81M, Lysogeny Broth, 5 mg/mL dried cell-free supernatant); 30 to 40 µg/mL in experiment [4] (MRSA 81M, Lysogeny Broth, 30 mg/mL dried cell-free supernatant); 30 to 40 µg/mL in experiment [4] (MRSA 81M, Lysogeny Broth, 60 mg/mL dried cell-free supernatant); 75 to 100 µg/mL in experiment [4] (MRSA 81M, Mueller-Hinton Broth, 0 mg/mL dried cell-free supernatant); 40 to 50 µg/mL in experiment [4] (MRSA 81M, Mueller-Hinton Broth, 5 mg/mL dried cell-free supernatant). Also, the “Range … to inhibition growth to O.D. <0.1” value in experiment [4] (MRSA 81M, Mueller-Hinton Broth, 30 mg/mL dried cell-free supernatant) was 30 to 40 µg/mL; in experiment [4] (MRSA 81M, Mueller-Hinton Broth, 60 mg/mL dried cell-free supernatant), 20 to 30 µg/mL; in experiment [4] (Staphylococcus aureus 81M, control, cefoxitin only (0 mg/mL), Table 5), 60 to 75 µg/mL; in experiment [5] (0 mg/mL dried cell-free supernatant) it was 125 to 175 µg/mL; in experiment [5] (5 mg/mL dried cell-free supernatant), 50 to 75 µg/mL; in experiment [5] (30 mg/mL dried cell-free supernatant), 20 to 30 µg/mL. The “Range … to inhibition growth to O.D. <0.1” value in experiment [5] (60 mg/mL dried cell-free supernatant) fell in the range of 20 to 30 µg/mL; in experiment [6] (Lysogeny Broth, 0 mg/mL dried cell-free supernatant) it was 30 to 40 µg/mL; in experiment [6] (Lysogeny Broth, 5 mg/mL dried cell-free supernatant) it was 15 to 20 µg/mL; in experiment [6] (Lysogeny Broth, 30 mg/mL dried cell-free supernatant), 15 to 20 µg/mL; in experiment [6] (Lysogeny Broth, 60 mg/mL dried cell-free supernatant), 10 to 15 µg/mL; in experiment [6] (Mueller-Hinton Broth, 0 mg/mL dried cell-free supernatant), 50 to 60 µg/mL. Besides, the “Range … to inhibition growth to O.D. <0.1” value in experiment [6] (Mueller-Hinton Broth, 5 mg/mL dried cell-free supernatant) was in the range of 40 to 50 µg/mL; in experiment [6] (Mueller-Hinton Broth, 30 mg/mL dried cell-free supernatant) it was 20 to 30 µg/mL; in experiment [6] (Mueller-Hinton Broth, 60 mg/mL dried cell-free supernatant) it was 20 to 30 µg/mL.
For the molecule HLLPLP, the Fold down-regulation turned out to be 2.93 Fold in experiment [2] and 2.64 Fold in experiment [3].
In the case of YPPGGP, the values for the Fold down-regulation in experiment [2] and in experiment [3] were 2.93 Fold and 3.56 Fold, respectively.
For YPVEPF the same measures were 0.68 Fold and 1.03 Fold.
On to MALPPK, for which the Fold down-regulation in experiment [2] is 19.56 Fold; in experiment [3] it was 9.06 Fold.
Consider CVLPPK, for which the Fold down-regulation in experiment [2] was found to be 3.75 Fold; in experiment [3] it was 3.20 Fold.
